Four compounds from publication PMC3985129 (Journal of laboratory automation, 2013) can be followed below.

The target of data set [1] is green coffee bean α-galactosidase A (GLA) (Coffea arabica, UniProt Q42656). Nature of the data set: α-galactosidase. It counts as biochemical.
Data set [2] is described as follows: Cytotoxicity assay. The following applies: human, MMTV-βLa HeLa cells, EC50 (95% confidence interval), Cytotoxicity assay (ATP content).
[3] abbreviates: HP D300 - with DMSO backfill, 384-well.
The mark [4] stands for this setting: HP D300 - without DMSO backfill, 384-well.

SMILES strings stand for the structures. Values joined by “and” are separate entries in the source; they are usually repeats but may differ in a detail not shown here. Equal values may be shown once.

Sequence of green coffee bean α-galactosidase A (GLA) (Q42656 16-378): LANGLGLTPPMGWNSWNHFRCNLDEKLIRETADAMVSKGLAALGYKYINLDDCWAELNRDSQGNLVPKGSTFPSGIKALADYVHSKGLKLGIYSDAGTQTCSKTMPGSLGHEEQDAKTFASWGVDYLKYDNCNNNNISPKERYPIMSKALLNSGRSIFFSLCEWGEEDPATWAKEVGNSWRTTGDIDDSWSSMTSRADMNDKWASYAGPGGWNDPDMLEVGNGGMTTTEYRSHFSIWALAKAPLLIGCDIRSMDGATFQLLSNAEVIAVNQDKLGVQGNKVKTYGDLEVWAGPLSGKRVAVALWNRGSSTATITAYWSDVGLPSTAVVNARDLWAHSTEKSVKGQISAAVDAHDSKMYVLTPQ

For `CC(=O)[O][Hg][c]1ccccc1` [PMA, phenylmercuric acetate], the “fold more potent in our assay than previously reported” value in data set [1] (versus previously published value, ref [4]) is recorded as > 50 fold.
For orientation: EC50 means the concentration needed to bring the measured effect to its halfway point. A higher EC50 goes with a need for much substance. Turning to `Cc1c(OCC(F)(F)F)ccnc1C[S+]([O-])c1nc2ccccc2[nH]1` (centres unmarked) [Lansoprazole, lansoprazole], the EC50 in data set [1] (EC50 (95% confidence interval), α-galactosidase enzyme assay) was 12 µM and 11.5 µM and 8.95 µM.
Turning to `CC/C(=C(\c1ccccc1)c1ccc(OCCN(C)C)cc1)c1ccccc1` [Tamoxifen, tamoxifen], the EC50 at 72 hr in data set [2] (setting [3]) turned out to be 8.77 µM; in data set [2] (setting [4]), 9 µM; in data set [2] (Pin tool – 1536-well) it was 32.1 µM.
Regarding `COc1cccc2c1C(=O)c1c(O)c3c(c(O)c1C2=O)C[C@@](O)(C(C)=O)C[C@@H]3O[C@H]1C[C@H](N)[C@H](O)[C@H](C)O1` [Daunorubicin], the EC50 at 72 hr in data set [2] (setting [3]) was 0.189 µM; in data set [2] (setting [4]) it was 0.252 µM; in data set [2] (Pin tool – 1536-well) it was 0.38 µM.
